Consider 16 compounds from PubChem BioAssay (NCI).

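48-hour exposure; five concentrations; linearly interpolated endpoints. At the TGI there is no net growth.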

Among the test systems are OVCAR-4 ovarian; 786-0 renal; SK-MEL-28 melanoma; NCI-H23 lung; CCRF-CEM leukemia; TK-10 renal; A498 renal; CAKI-1 renal; NCI-H460 lung.
Common to all, as to test: NCI anticancer screen, dose series, 48 h

Turning to `O=C1CCCC/C1=C/C=C/c1ccccc1`, the TGI in the test on OVCAR-4 ovarian, in the test with 786-0 renal, in the test on SK-MEL-28 melanoma, in the test on NCI-H23 lung, in the test on CCRF-CEM leukemia and with TK-10 renal was > 100 µM throughout. For the same compound, the TGI with A498 renal, with CAKI-1 renal and in the test on NCI-H460 lung was > 100 µM throughout.

`CN(C)CCn1c2ccccc2c2nc3cc4ccccc4cc3nc21`: the TGI with OVCAR-4 ovarian was determined as 23.7 µM; in the test on 786-0 renal, 16 µM; in the test on SK-MEL-28 melanoma, 21.9 µM; in the test on NCI-H23 lung it was 24 µM; in the test on CCRF-CEM leukemia it was 14.7 µM; in the test with TK-10 renal, 26.4 µM. For the same compound, the figures for the TGI in the test with A498 renal, in the test with CAKI-1 renal and in the test with NCI-H460 lung were 8.11 µM, 20 µM and 2.48 µM, respectively.

`Cc1ccc(C)c(NC(=O)c2cc(-c3ccc([N+](=O)[O-])cc3)nc(N)n2)c1`: the TGI in the test with OVCAR-4 ovarian, with 786-0 renal, in the test on SK-MEL-28 melanoma, with NCI-H23 lung, in the test with CCRF-CEM leukemia and in the test on TK-10 renal was > 100 µM throughout. In addition, the TGI in the test with A498 renal, in the test with CAKI-1 renal and with NCI-H460 lung was > 100 µM throughout.

With `O=c1cc(Cl)nc[nH]1`, the TGI in the test with OVCAR-4 ovarian, in the test on 786-0 renal, with SK-MEL-28 melanoma, with NCI-H23 lung, in the test with CCRF-CEM leukemia and in the test with TK-10 renal was > 100 µM each time. Besides, the TGI in the test with A498 renal, with CAKI-1 renal and with NCI-H460 lung was > 100 µM throughout.

On to `O=c1ccccc2cccc(O)c12`, for which the TGI with OVCAR-4 ovarian, in the test with 786-0 renal, in the test on SK-MEL-28 melanoma, in the test with NCI-H23 lung, in the test on CCRF-CEM leukemia and in the test with TK-10 renal was > 100 µM throughout. Besides, the TGI in the test with A498 renal, in the test on CAKI-1 renal and in the test with NCI-H460 lung was > 100 µM each time.

Regarding `Cc1c(C(=O)/C=C/c2ccc(Cl)cc2)[n+](=O)c2ccccc2n1[O-]`, the TGI with OVCAR-4 ovarian was 28.3 µM; in the test with 786-0 renal, 27.4 µM; in the test with SK-MEL-28 melanoma, 32.6 µM; in the test with NCI-H23 lung, 22.2 µM; in the test with CCRF-CEM leukemia, > 100 µM; with TK-10 renal it was 35.5 µM. For the same compound, the TGI in the test on A498 renal was 29.2 µM; in the test with CAKI-1 renal, 31.6 µM; in the test with NCI-H460 lung it was 29.1 µM.

As for `Cc1ccc(NC(=O)/C(CC(=O)c2c[n+](=O)c3ccccc3n2O)=N\NC(=O)C[n+]2ccccc2)cc1`, the TGI in the test on OVCAR-4 ovarian, in the test with 786-0 renal, with SK-MEL-28 melanoma, in the test with CCRF-CEM leukemia, with TK-10 renal and with A498 renal was > 100 µM in each case. The TGI in the test with CAKI-1 renal and in the test on NCI-H460 lung was > 100 µM throughout.

On to `C(=C\c1csnn1)/c1cccnc1`, for which the TGI in the test with OVCAR-4 ovarian, in the test on 786-0 renal, in the test with SK-MEL-28 melanoma, in the test with NCI-H23 lung, with TK-10 renal and in the test on A498 renal was > 100 µM each time. In addition, in the test with NCI-H460 lung, the TGI is > 100 µM.

Regarding `CC(c1ccc(Br)cc1)C(C(=O)O)C(=O)O` (centres undefined), the TGI in the test with OVCAR-4 ovarian, in the test with 786-0 renal, in the test on SK-MEL-28 melanoma, in the test with NCI-H23 lung, in the test with CCRF-CEM leukemia and with TK-10 renal was > 100 µM each time. Also, the TGI with CAKI-1 renal and in the test with NCI-H460 lung was > 100 µM throughout.

Consider `CCOC(=O)/N=C(\N)SCc1ccccc1`, for which the TGI in the test with OVCAR-4 ovarian, with 786-0 renal, in the test with SK-MEL-28 melanoma, in the test on NCI-H23 lung, in the test with CCRF-CEM leukemia and in the test with TK-10 renal was > 100 µM throughout. Moreover, the TGI with A498 renal, in the test on CAKI-1 renal and in the test on NCI-H460 lung was > 100 µM throughout.

On to `CC1=CC(C)(C)N=C2SC(c3ccc(Cl)cc3)=NN12`, for which the TGI with OVCAR-4 ovarian is > 100 µM; in the test on 786-0 renal, 32.8 µM; with SK-MEL-28 melanoma, > 100 µM; in the test on NCI-H23 lung, 81.5 µM; in the test with CCRF-CEM leukemia, > 100 µM; in the test on TK-10 renal it was > 100 µM. In addition, the TGI was 83.6 µM with A498 renal, > 100 µM in the test on CAKI-1 renal and > 100 µM with NCI-H460 lung.

For the compound `COc1ccc(C(c2ccc(C(C)C)cc(=O)c2O)c2c(O)cc3oc(-c4ccccc4)cc(=O)c3c2O)cc1` (centres undefined), the TGI with OVCAR-4 ovarian is 23 µM; with 786-0 renal it was 14.1 µM; with SK-MEL-28 melanoma it was > 100 µM; in the test with NCI-H23 lung it was 55.7 µM; with CCRF-CEM leukemia it was > 100 µM; in the test with TK-10 renal it was 90.3 µM. The TGI with A498 renal was 51.5 µM; in the test on CAKI-1 renal, 36.3 µM; in the test on NCI-H460 lung, 15.8 µM.

With `Cc1cc(NS(=O)(=O)c2ccc(NC(=O)c3cccc4c(N)c5ccccc5nc34)cc2)no1`, the TGI with OVCAR-4 ovarian was 70.5 µM; with 786-0 renal it was 33.7 µM; in the test on SK-MEL-28 melanoma it was 44.2 µM; in the test on NCI-H23 lung it was 52.2 µM; in the test on CCRF-CEM leukemia it was 66.5 µM; in the test on TK-10 renal, > 100 µM. Further, the TGI in the test with A498 renal was 52 µM; with CAKI-1 renal it was 80.4 µM; in the test with NCI-H460 lung it was > 100 µM.

For `O=c1/c(=C/c2ccc(Cl)cc2Cl)sc2nc3ccccc3n12`, the TGI in the test on OVCAR-4 ovarian, with 786-0 renal, with SK-MEL-28 melanoma, in the test on NCI-H23 lung, in the test on CCRF-CEM leukemia and with TK-10 renal was > 100 µM each time. In addition, the TGI in the test with A498 renal, in the test with CAKI-1 renal and with NCI-H460 lung was > 100 µM in each case.

In the case of `CCCCCCCCCCCC(=O)OCC1OC(n2cc(F)c(=O)[nH]c2=O)C(N)C(OC(=O)CCCCCCCCCCC)C1O` (centres undefined), the TGI in the test on OVCAR-4 ovarian, in the test on 786-0 renal, in the test on SK-MEL-28 melanoma, with NCI-H23 lung, with CCRF-CEM leukemia and in the test on TK-10 renal was > 100 µM throughout. Also, the TGI with A498 renal, in the test with CAKI-1 renal and in the test with NCI-H460 lung was > 100 µM in each case.

Take `N=C(N)SCCc1cn2ccccc2n1`: the TGI in the test on OVCAR-4 ovarian, with 786-0 renal, in the test with SK-MEL-28 melanoma, with NCI-H23 lung, with CCRF-CEM leukemia and with TK-10 renal was > 100 µM throughout. Also, the TGI in the test on CAKI-1 renal and in the test with NCI-H460 lung was > 100 µM in each case.
